Assay results: ChEMBL document CHEMBL3108763, “[1,2,4]triazolo[4,3-a]phthalazines: inhibitors of diverse bromodomains” (J Med Chem, 2014)

target: Protein polybromo-1 (Homo sapiens) (UniProt Q86U86); settings: 100 uM
Sequence (Q86U86 whole entry): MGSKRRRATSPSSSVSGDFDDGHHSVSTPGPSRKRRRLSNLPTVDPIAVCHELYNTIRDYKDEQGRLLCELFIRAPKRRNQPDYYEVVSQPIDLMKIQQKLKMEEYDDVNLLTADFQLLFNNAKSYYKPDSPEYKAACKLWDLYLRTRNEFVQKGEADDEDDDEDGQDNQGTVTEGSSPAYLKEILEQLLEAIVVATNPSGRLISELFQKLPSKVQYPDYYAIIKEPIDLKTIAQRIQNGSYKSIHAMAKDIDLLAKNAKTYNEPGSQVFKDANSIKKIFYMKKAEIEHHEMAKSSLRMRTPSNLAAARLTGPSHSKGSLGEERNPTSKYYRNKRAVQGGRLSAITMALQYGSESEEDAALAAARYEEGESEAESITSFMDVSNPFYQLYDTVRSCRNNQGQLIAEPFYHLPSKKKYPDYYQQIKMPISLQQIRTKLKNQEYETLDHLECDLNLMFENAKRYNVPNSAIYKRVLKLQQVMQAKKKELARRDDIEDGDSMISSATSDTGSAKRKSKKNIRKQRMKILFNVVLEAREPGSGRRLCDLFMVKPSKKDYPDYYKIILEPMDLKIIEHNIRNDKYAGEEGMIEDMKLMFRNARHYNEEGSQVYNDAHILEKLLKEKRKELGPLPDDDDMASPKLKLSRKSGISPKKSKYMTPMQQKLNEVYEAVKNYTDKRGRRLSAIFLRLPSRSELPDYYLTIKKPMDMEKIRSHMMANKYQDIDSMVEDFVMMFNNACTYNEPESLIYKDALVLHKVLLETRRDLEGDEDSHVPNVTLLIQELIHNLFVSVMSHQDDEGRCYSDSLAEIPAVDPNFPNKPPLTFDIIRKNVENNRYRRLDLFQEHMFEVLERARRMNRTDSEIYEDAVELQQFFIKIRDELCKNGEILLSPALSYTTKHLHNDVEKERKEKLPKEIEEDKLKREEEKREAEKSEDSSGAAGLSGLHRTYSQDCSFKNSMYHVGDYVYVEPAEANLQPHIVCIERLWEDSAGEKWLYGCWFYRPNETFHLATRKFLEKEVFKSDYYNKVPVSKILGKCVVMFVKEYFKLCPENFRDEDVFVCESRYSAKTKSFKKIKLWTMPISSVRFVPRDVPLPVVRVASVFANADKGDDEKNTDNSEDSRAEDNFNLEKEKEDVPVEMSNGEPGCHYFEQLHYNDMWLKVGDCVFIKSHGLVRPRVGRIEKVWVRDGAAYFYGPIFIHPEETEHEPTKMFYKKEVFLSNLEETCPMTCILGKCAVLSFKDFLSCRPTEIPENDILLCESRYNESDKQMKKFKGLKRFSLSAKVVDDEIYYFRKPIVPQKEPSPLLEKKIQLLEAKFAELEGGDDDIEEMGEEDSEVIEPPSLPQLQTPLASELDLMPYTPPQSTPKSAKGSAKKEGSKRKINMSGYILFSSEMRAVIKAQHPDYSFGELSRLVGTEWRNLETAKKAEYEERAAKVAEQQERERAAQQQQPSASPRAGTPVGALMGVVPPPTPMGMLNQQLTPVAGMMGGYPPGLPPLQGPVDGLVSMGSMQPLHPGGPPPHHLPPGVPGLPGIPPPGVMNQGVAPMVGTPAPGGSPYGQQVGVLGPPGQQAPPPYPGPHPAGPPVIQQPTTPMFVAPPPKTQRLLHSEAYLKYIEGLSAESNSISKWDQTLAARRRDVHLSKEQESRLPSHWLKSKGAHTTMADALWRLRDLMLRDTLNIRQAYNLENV

inhibition	SMILES
< 25%	Cc1ccc(-c2nn3c(C)nnc3c3ccccc23)cc1NS(C)(=O)=O
< 25%	CCC(=O)Nc1cc(-c2nn3c(C)nnc3c3ccccc23)ccc1C
< 25%	CNS(=O)(=O)c1cc(-c2nn3c(C)nnc3c3ccccc23)ccc1C
< 25%	Cc1ccc(-c2nn3c(C)nnc3c3ccccc23)cc1S(=O)(=O)N(C)C

target: T1, Transcription intermediary factor 1-alpha (Homo sapiens) (UniProt O15164); settings: 100 uM
T1 sequence (whole entry): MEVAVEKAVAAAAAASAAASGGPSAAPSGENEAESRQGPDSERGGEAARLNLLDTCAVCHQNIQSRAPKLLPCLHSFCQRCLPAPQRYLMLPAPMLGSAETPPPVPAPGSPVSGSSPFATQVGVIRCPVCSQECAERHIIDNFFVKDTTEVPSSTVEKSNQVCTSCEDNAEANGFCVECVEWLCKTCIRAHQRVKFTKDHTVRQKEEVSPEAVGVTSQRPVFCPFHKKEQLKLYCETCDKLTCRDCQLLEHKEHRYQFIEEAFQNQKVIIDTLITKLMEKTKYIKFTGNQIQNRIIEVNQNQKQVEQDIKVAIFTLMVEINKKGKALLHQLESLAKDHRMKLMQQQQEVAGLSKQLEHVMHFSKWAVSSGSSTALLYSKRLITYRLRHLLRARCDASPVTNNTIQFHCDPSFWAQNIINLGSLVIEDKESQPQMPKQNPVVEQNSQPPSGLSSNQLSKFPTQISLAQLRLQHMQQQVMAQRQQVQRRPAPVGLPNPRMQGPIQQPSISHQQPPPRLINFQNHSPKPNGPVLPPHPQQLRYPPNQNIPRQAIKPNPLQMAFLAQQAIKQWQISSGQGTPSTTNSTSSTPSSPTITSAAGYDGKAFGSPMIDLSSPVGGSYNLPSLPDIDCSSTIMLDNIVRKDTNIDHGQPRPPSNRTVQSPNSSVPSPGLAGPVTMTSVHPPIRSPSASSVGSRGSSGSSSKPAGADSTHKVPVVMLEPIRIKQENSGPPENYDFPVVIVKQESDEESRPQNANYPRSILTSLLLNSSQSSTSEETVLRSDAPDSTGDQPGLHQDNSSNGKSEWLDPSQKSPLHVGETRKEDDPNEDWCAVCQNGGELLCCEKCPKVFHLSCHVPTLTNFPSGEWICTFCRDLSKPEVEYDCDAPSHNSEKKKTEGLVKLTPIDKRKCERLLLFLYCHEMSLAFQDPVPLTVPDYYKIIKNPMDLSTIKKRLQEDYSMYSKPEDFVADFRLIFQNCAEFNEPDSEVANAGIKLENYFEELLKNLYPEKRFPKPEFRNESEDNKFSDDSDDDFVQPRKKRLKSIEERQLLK

inhibition	SMILES
< 25%	Cc1ccc(-c2nn3c(C)nnc3c3ccccc23)cc1NS(C)(=O)=O
< 25%	CCC(=O)Nc1cc(-c2nn3c(C)nnc3c3ccccc23)ccc1C
< 25%	CNS(=O)(=O)c1cc(-c2nn3c(C)nnc3c3ccccc23)ccc1C
< 25%	Cc1ccc(-c2nn3c(C)nnc3c3ccccc23)cc1S(=O)(=O)N(C)C

target: T1, Transcription intermediary factor 1-alpha (Homo sapiens); settings: 50 uM

inhibition	SMILES
< 30%	Cc1nnc2c3ccccc3c(-c3ccc(N4CCOCC4)c(NS(=O)(=O)c4ccccc4Cl)c3)nn12
< 30%	Cc1nnc2c3ccccc3c(-c3ccc(N4CCOCC4)c(NS(=O)(=O)c4ccc(Cl)cc4)c3)nn12
< 30%	COc1ccc(S(=O)(=O)Nc2cc(-c3nn4c(C)nnc4c4ccccc34)ccc2N2CCN(C)CC2)cc1
< 30%	Cc1nnc2c3ccccc3c(-c3ccc(N4CCOCC4)c(NS(C)(=O)=O)c3)nn12

target: Bromodomain adjacent to zinc finger domain protein 2B (Homo sapiens) (UniProt Q9UIF8); settings: 100 uM
Sequence (Q9UIF8 whole entry, the tested form may be a part): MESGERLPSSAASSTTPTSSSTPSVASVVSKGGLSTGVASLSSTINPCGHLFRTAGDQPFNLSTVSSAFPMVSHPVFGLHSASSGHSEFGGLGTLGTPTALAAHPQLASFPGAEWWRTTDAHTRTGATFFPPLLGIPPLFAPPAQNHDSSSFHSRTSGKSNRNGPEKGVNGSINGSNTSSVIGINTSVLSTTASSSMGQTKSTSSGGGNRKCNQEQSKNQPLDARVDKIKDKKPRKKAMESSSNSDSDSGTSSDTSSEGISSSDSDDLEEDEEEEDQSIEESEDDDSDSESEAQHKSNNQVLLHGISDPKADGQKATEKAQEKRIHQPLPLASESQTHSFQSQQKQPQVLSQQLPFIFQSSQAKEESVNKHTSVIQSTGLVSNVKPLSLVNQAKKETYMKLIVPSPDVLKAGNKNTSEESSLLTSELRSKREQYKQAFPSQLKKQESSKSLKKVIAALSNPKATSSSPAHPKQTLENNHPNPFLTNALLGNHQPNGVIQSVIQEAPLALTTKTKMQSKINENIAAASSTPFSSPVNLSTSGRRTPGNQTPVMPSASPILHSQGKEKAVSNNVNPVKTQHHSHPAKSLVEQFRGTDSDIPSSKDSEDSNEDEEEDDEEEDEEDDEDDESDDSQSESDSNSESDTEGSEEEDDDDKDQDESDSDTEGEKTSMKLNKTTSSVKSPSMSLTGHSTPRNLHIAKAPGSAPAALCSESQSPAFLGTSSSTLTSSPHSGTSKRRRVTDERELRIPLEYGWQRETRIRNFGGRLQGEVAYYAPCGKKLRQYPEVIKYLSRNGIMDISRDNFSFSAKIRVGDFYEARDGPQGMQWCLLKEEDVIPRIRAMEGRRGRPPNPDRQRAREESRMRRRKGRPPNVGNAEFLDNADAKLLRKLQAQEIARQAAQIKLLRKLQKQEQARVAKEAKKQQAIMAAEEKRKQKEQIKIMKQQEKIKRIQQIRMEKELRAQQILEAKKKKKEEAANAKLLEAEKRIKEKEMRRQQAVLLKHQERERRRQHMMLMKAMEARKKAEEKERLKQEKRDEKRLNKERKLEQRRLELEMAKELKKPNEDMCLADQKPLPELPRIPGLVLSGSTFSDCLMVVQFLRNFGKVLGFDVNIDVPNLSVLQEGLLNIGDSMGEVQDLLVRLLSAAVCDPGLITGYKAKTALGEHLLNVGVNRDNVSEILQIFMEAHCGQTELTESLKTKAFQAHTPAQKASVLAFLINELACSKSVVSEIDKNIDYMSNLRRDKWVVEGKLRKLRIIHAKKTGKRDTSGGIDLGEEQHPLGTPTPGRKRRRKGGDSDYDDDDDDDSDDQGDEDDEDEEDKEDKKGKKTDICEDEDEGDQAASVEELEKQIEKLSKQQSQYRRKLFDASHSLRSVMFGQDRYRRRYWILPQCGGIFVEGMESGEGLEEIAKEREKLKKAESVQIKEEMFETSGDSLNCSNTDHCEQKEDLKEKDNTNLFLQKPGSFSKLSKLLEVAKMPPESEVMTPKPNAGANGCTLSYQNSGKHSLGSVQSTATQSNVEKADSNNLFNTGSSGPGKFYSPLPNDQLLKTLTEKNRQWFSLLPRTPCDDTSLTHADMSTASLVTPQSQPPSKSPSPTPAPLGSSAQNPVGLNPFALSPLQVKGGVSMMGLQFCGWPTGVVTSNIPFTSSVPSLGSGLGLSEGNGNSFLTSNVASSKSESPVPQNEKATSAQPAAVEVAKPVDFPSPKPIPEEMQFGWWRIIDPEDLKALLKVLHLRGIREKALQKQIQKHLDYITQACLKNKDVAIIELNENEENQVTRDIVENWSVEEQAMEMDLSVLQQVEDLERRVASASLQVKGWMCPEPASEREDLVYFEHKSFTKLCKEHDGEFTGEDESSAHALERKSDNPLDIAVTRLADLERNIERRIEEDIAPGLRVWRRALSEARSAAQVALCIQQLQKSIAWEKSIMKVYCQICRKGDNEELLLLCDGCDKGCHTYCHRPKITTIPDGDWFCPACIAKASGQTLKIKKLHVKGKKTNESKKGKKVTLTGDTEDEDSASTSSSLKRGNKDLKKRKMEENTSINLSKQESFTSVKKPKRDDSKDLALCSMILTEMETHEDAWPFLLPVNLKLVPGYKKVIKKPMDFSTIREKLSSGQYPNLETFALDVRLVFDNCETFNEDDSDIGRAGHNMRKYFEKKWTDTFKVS

inhibition	SMILES
< 25%	Cc1ccc(-c2nn3c(C)nnc3c3ccccc23)cc1NS(C)(=O)=O
< 25%	CCC(=O)Nc1cc(-c2nn3c(C)nnc3c3ccccc23)ccc1C
< 25%	CNS(=O)(=O)c1cc(-c2nn3c(C)nnc3c3ccccc23)ccc1C
< 25%	Cc1ccc(-c2nn3c(C)nnc3c3ccccc23)cc1S(=O)(=O)N(C)C
